From ChEMBL document CHEMBL2390918, “Cinnamides as selective small-molecule inhibitors of a cellular model of breast cancer stem cells” (Bioorg Med Chem Lett, 2013)
The source made the active and inactive calls. The calls are words filed in the database; no cut-off is given here.

Experiments:
[1] = Selectivity ratio of EC50 for human HMLE cells expressing shRNA and GFP to EC50 for human CSC-like HMLE cells expressing shRNA and epithelial cadherin; type: ADME, cell-based; settings: read-out: Ratio EC50
[2] = Cytotoxicity against human CSC-like HMLE cells expressing shRNA and epithelial cadherin after 70 to 74 hrs by Cell Titer Glo assay; type: functional, cell-based
[3] = Cytotoxicity against human HMLE cells expressing shRNA and GFP after 70 to 74 hrs by Cell Titer Glo assay; type: cell-based
Rattus norvegicus [4] = organism: Rattus norvegicus; experiment: Displacement of [3H]GABA from GABA transporter in Wistar rat cerebral cortex at 10 uM after 20 mins relative to control; type: tissue-based
[5] = Displacement of [3H]GABA from GABA transporter in Wistar rat cerebral cortex after 20 mins; type: tissue-based
[6] = Selectivity ratio of EC50 for human CSC-like HMLE cells expressing shRNA and epithelial cadherin to EC50 for human HMLE cells expressing shRNA and GFP; type: ADME, cell-based; settings: read-out: Ratio EC50
HMLE = experiment: Cytotoxicity against human CSC-like HMLE cells expressing shRNA and epithelial cadherin at 20 uM after 70 to 74 hrs by Cell Titer Glo assay; type: functional, cell-based
[7] = Cytotoxicity against human HMLE cells expressing shRNA and GFP at 20 uM after 70 to 74 hrs by Cell Titer Glo assay; type: cell-based
[8] = Solubility in PBS at 100 uM after 24 hrs at pH 7.4 by UPLC-MS analysis; type: physicochemical
[9] = target: Prostaglandin E2 receptor EP4 subtype (Homo sapiens) (UniProt P35408); experiment: Displacement of [3H]PGE2 from human recombinant prostanoid EP4 receptor in CHEM1 cells at 10 uM after 2 hrs relative to control; type: cell-based
[10] = Displacement of [3H]alpha, beta-methylene-ATP from purinergic P2X receptor in New Zealand albino rabbit urinary bladder after 30 mins; design: species or system Oryctolagus cuniculus
Oryctolagus cuniculus = organism: Oryctolagus cuniculus; experiment: Displacement of [3H]alpha, beta-methylene-ATP from purinergic P2X receptor in New Zealand albino rabbit urinary bladder at 10 uM after 30 mins relative to control
HIT-T15 = experiment: Displacement of [3H]Glyburide from ATP-sensitive potassium channel in hamster pancreatic HIT-T15 cells at 10 uM after 2 hrs relative to control; type: cell-based; settings: Mesocricetus auratus
[11] = Displacement of [3H]Glyburide from ATP-sensitive potassium channel in hamster pancreatic HIT-T15 cells after 2 hrs; type: cell-based, Mesocricetus auratus
Substance-P receptor [12] = target: T1, Substance-P receptor (Homo sapiens, UniProt P25103); experiment: Displacement of [3H]Substance P from human recombinant substance P receptor expressed in CHO cells after 90 mins; type: cell-based
Substance-P receptor [13] = target: T1, Substance-P receptor; experiment: Displacement of [3H]Substance P from human recombinant substance P receptor expressed in CHO cells at 10 uM after 90 mins relative to control; type: cell-based
[14] = target: 5-hydroxytryptamine receptor 2B (Homo sapiens) (UniProt P41595); settings: CHO-K1, 10 uM
Rattus norvegicus [15] = organism: Rattus norvegicus; experiment: Displacement of [125I]Triiodothyronine from thyroid hormone receptor in Wistar rat liver at 10 uM after 18 hrs relative to control
[16] = target: Platelet-activating factor receptor (Homo sapiens) (UniProt P25105); experiment: Displacement of [3H]PAF from platelet activating factor receptor in human platelets at 10 uM after 3 hrs relative to control
[17] = target: 5-hydroxytryptamine receptor 1A (Homo sapiens) (UniProt P08908); experiment: Displacement of [3H]8-OH-DPAT from human recombinant 5HT1A receptor expressed in CHOK1 cells at 10 uM after 60 mins relative to control; type: cell-based; settings: CHO-K1
[18] = Displacement of [3H]Batrachotoxin from sodium channel site 2 in Wistar rat brain after 60 mins
Rattus norvegicus [19] = organism: Rattus norvegicus; settings: Wistar, 10 uM
[20] = target: Sodium-dependent dopamine transporter (Homo sapiens) (UniProt Q01959); settings: CHO-K1, 10 uM
Rattus norvegicus [21] = organism: Rattus norvegicus; experiment: Displacement of [3H]Rolipram from rolipram binding site in Wistar rat brain at 10 uM after 60 mins relative to control
[22] = target: 5-hydroxytryptamine receptor 3A (Homo sapiens) (UniProt P46098); settings: HEK293, 10 uM
5-hydroxytryptamine receptor 3A (Homo sapiens), sequence (P46098 whole entry): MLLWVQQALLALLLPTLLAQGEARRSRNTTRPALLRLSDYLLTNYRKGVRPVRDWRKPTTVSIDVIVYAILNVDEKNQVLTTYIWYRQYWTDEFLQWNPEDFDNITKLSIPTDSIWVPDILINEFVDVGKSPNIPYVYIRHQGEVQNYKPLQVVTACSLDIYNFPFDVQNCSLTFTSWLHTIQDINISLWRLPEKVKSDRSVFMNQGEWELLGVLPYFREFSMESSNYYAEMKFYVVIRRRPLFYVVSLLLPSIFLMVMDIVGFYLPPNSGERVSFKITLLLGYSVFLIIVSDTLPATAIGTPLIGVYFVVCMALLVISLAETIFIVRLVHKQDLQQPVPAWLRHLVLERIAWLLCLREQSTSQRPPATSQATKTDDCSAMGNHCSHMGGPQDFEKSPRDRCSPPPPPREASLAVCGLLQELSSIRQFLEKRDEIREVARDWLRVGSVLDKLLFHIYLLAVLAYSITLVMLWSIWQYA

T1 sequence (P25103 whole entry): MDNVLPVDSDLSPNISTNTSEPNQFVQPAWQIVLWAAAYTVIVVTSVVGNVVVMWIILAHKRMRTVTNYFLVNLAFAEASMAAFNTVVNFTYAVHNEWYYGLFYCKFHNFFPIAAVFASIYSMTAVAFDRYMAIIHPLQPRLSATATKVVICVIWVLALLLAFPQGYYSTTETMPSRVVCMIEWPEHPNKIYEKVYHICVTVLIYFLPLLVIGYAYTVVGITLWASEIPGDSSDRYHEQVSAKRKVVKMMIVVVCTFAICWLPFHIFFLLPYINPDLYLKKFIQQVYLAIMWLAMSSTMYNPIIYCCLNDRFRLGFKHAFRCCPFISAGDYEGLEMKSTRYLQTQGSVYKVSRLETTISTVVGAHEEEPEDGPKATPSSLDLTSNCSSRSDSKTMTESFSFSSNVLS
Sodium-dependent dopamine transporter (Homo sapiens), sequence (Q01959 whole entry): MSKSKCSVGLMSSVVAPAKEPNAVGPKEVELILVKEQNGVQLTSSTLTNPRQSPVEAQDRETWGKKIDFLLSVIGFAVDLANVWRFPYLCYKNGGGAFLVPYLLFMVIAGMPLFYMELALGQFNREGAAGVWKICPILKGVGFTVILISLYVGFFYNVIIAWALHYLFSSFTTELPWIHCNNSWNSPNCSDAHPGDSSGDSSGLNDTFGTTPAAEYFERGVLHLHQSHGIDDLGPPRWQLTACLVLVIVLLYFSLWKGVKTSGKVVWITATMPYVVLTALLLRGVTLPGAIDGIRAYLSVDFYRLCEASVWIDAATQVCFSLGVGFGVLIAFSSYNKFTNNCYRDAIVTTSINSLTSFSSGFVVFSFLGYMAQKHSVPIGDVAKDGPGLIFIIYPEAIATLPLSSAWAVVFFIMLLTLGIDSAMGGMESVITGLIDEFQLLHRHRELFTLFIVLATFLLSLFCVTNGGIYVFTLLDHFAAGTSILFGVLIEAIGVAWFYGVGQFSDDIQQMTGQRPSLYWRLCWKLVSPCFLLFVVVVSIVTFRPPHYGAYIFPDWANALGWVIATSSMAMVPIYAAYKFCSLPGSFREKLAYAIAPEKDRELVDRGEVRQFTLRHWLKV
5-hydroxytryptamine receptor 1A (Homo sapiens), sequence (P08908 whole entry): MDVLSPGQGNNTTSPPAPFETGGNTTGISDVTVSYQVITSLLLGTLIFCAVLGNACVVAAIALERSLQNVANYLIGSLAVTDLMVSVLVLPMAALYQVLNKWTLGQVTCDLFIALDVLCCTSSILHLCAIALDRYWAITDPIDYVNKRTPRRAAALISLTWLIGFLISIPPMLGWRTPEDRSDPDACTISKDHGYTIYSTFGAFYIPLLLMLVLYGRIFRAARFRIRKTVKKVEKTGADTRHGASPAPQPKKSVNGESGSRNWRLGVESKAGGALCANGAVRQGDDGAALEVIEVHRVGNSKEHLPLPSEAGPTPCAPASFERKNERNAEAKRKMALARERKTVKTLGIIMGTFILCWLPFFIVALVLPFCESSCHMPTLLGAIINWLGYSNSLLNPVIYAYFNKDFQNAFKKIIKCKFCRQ
5-hydroxytryptamine receptor 2B (Homo sapiens), sequence (P41595 whole entry): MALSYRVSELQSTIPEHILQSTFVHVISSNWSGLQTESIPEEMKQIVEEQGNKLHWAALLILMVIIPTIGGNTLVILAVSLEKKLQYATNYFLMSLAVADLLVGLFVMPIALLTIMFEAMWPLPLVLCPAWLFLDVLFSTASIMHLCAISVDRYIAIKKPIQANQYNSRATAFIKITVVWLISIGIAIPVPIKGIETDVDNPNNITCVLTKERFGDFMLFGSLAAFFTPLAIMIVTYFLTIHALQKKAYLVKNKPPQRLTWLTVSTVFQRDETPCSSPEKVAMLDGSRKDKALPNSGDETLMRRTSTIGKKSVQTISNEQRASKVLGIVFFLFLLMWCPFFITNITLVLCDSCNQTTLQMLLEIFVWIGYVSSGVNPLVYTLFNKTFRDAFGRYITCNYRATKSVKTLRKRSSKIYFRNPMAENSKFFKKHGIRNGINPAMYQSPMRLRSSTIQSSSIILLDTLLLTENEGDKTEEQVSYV
Prostaglandin E2 receptor EP4 subtype (Homo sapiens), sequence (P35408 whole entry): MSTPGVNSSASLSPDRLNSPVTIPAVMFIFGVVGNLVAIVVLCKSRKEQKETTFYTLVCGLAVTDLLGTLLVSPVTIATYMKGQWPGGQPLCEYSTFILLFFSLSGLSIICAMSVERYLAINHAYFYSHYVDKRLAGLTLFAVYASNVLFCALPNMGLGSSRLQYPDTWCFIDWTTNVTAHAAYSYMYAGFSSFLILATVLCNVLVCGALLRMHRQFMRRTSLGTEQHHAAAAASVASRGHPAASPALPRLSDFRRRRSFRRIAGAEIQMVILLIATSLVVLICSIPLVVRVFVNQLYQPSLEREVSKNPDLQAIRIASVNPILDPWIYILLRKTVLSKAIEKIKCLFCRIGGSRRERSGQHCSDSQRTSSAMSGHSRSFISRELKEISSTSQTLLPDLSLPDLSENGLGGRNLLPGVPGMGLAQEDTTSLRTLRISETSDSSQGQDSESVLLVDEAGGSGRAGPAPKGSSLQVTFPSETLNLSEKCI
Platelet-activating factor receptor (Homo sapiens), sequence (P25105 whole entry): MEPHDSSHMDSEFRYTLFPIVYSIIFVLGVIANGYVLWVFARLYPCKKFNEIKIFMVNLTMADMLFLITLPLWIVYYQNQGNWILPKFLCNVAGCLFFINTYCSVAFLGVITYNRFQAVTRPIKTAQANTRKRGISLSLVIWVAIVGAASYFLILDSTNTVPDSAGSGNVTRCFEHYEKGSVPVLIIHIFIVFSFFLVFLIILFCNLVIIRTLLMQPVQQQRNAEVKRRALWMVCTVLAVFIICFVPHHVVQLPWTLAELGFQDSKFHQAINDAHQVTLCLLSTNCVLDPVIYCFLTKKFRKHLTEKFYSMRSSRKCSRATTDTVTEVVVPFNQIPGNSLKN

| SMILES | EC50 [2] | Activity (HMLE) | Activity [7] | other results |
| --- | --- | --- | --- | --- |
| CC(C)Cc1ccc(/C=C/C(=O)NC2=NCCS2)cc1 | 0.478 µM |  |  | selectivity ratio [1]: 4.54; EC50 [3]: 2.17 µM |
| O=C(/C=C/c1ccc(-c2ccccc2)cc1)NC1=NCCS1 | 0.65 µM |  |  | selectivity ratio [1]: 53.1; EC50 [3]: 34.6 µM |
| O=C(O)C1=CCCN(CCON=C(c2ccccc2)c2ccccc2)C1 |  |  |  | inhibition (Rattus norvegicus [4]): -6%; IC50 [5]: 0.2 µM; Ki [5]: 0.2 µM |
| CC(C)c1ccc(/C=C/C(=O)NC2CCCC2)cc1 | 123 µM |  |  | EC50 [3]: 59.6 µM; selectivity ratio [6]: 2.07 |
| O=C(/C=C/c1ccc(F)cc1)NC1=NCCS1 |  | inactive | Non-toxic |  |
| CC(C)c1ccc(/C=C/C(=O)NC2=NCCS2)cc1 | 50.6 µM |  |  | EC50 [3]: 2.35 µM; solubility at 24 h, 100 µM [8]: < 1 µM; selectivity ratio [6]: 21.5 |
| CC(C)c1ccc(/C=C(\C#N)C(=O)NC2=NCCS2)cc1 |  | inactive | Non-toxic |  |
| Cc1cccc(/C=C/C(=O)NC2=NCCS2)c1 |  | inactive | Non-toxic |  |
| CC(C)c1ccc(/C=C/C(=O)Nc2nccn2C)cc1 | 5.97 µM |  |  | EC50 [3]: 4.65 µM; selectivity ratio [6]: 1.28 |
| CCCCC[C@H](O)/C=C/[C@H]1[C@H](O)CC(=O)[C@@H]1C/C=C\CCCC(=O)O |  |  |  | inhibition [9]: 5% |
| CCNC(=O)/C=C/c1ccc(C(C)C)cc1 |  | inactive | Non-toxic |  |
| COc1ccc(OC)c(/C=C/C(=O)NC2=NCCS2)c1 |  | inactive | Non-toxic |  |
| O=C(/C=C/c1ccccc1)NC1=NCCS1 |  | inactive | Non-toxic |  |
| CN(C)c1ccc(/C=C/C(=O)NC2=NCCS2)cc1 | 27.4 µM |  | Non-toxic |  |
| O=C(/C=C/c1cccc(Cl)c1)NC1=NCCS1 | 15 µM |  |  | selectivity ratio [1]: 1.44; EC50 [3]: 21.5 µM |
| Nc1ncnc2c1ncn2[C@@H]1O[C@H](COP(=O)(O)CP(=O)(O)OP(=O)(O)O)[C@@H](O)[C@H]1O [DIPHOSPHOMETHYLPHOSPHONIC ACID ADENOSYL ESTER] |  |  |  | IC50 [10]: 0.082 µM; Ki [10]: 0.018 µM; inhibition (Oryctolagus cuniculus): 3% |
| COc1ccc(Cl)cc1C(=O)NCCc1ccc(S(=O)(=O)NC(=O)NC2CCCCC2)cc1 [GLYBURIDE] |  |  |  | inhibition (HIT-T15): 10%; IC50 [11]: 0.0057 µM; Ki [11]: 0.00065 µM |
| COc1cccc(/C=C/C(=O)NC2=NCCS2)c1 | 62.1 µM |  |  | EC50 [3]: 96.2 µM |
| COc1ccccc1/C=C/C(=O)NC1=NCCS1 |  | inactive |  | EC50 [3]: 93.3 µM |
| Ic1ccccc1N[C@@H]1C2CCN(CC2)[C@@H]1C(c1ccccc1)c1ccccc1 |  |  |  | IC50 (Substance-P receptor [12]): 0.0036 µM; Ki (Substance-P receptor [12]): 0.0026 µM; inhibition (Substance-P receptor [13]): 0% |
| CC(C)c1ccc(/C=C/C(=O)O)cc1 |  | inactive | Non-toxic |  |
| Cc1ccc(/C=C/C(=O)NC2=NCCS2)cc1 | 16 µM |  | Non-toxic |  |

| SMILES | EC50 [2] | Activity (HMLE) | Activity [7] | other results |
| --- | --- | --- | --- | --- |
| O=C(/C=C/c1ccc(C(F)(F)F)cc1)NC1=NCCS1 |  | inactive | Non-toxic |  |
| O=C(/C=C/c1ccc(Cl)cc1)NC1=NCCS1 | 13.6 µM |  |  | selectivity ratio [1]: 0.73; EC50 [3]: 9.97 µM |
| CC(C)c1ccc(C#CC(=O)NC2=NCCS2)cc1 |  | inactive | Non-toxic |  |
| O=C(/C=C/c1ccc(-c2cccnc2)cc1)NC1=NCCS1 | 3.85 µM |  |  | selectivity ratio [1]: 1.47; EC50 [3]: 5.65 µM |
| Cn1c(C(=O)NC2=NCCS2)cc2ccccc21 |  | inactive | Non-toxic |  |
| COc1cc(/C=C/C(=O)NC2=NCCS2)cc(OC)c1OC |  | inactive | Non-toxic |  |
| COc1ccc(/C=C/C(=O)NC2=NCCS2)c(OC)c1 | 9.91 µM |  | Non-toxic |  |
| CC(C)c1ccc(C2CC2C(=O)NC2=NCCS2)cc1 (stereo not drawn) |  | inactive | Non-toxic |  |
| O=C(/C=C/c1ccccc1Cl)NC1=NCCS1 | 35 µM |  | Non-toxic |  |
| CC(C)c1ccc(/C=C/C(=O)Nc2ccccc2)cc1 | 3.28 µM |  |  | EC50 [3]: 3.44 µM; selectivity ratio [6]: 0.95 |
| O=C(c1ccc(F)cc1)C1CCN(CCn2c(=O)[nH]c3ccccc3c2=O)CC1 |  |  |  | inhibition [14]: 42% |
| CC(C)c1ccc(CCC(=O)NC2=NCCS2)cc1 | 9.91 µM |  | Non-toxic |  |
| CC(C)c1ccc(/C=C/C(=O)Nc2nccs2)cc1 | 7.26 µM |  |  | EC50 [3]: 3.55 µM; selectivity ratio [6]: 2.05 |
| N[C@@H](Cc1cc(I)c(Oc2ccc(O)c(I)c2)c(I)c1)C(=O)O |  |  |  | inhibition (Rattus norvegicus [15]): 6% |
| COc1cc(OC(C)C)ccc1/C=C/C(=O)NC1=NCCS1 |  | inactive | Non-toxic |  |
| O=C(/C=C/c1ccc(Cl)c(Cl)c1)NC1=NCCS1 |  | inactive | Non-toxic |  |
| N#Cc1cccc(/C=C/C(=O)NC2=NCCS2)c1 |  | inactive | Non-toxic |  |
| O=C(/C=C/c1cc(Cl)ccc1Cl)NC1=NCCS1 |  | inactive | Non-toxic |  |
| CC(C)c1ccc(/C=C\C(=O)NC2=NCCS2)cc1 |  | inactive | Non-toxic |  |
| CC(C)(C)c1ccc(/C=C/C(=O)NC2=NCCS2)cc1 |  | inactive |  | EC50 [3]: 20.6 µM |
| CC(C)c1ccc(/C=C/C(=O)NC2=NC(=O)CS2)cc1 | 27 µM |  |  | EC50 [3]: 13.3 µM; selectivity ratio [6]: 2.03 |
| CC(C)c1ccc(/C=C/C(=O)Nc2ncc[nH]2)cc1 |  | inactive |  | EC50 [3]: 51.6 µM |

| SMILES | EC50 [2] | Activity (HMLE) | Activity [7] | other results |
| --- | --- | --- | --- | --- |
| N#Cc1ccc(/C=C/C(=O)NC2=NCCS2)cc1 | 26.9 µM |  | Non-toxic |  |
| CCCCCCCCCCCCCCCCOC[C@H](COP(=O)([O-])OCC[N+](C)(C)C)OC(C)=O |  |  |  | inhibition [16]: 6% |
| CC(C)c1ccc(/C=C/C(=O)Nc2nncs2)cc1 | 9.97 µM |  |  | EC50 [3]: 13.6 µM; selectivity ratio [6]: 0.73 |
| COc1ccc(/C=C/C(=O)NC2=NCCS2)c(OC)c1OC |  | inactive | Non-toxic |  |
| C/C(=C\C(=O)NC1=NCCS1)c1ccc(C)cc1 |  | inactive | Non-toxic |  |
| COc1ccc(/C=C/C(=O)NC2=NCCS2)cc1OC |  | inactive | Non-toxic |  |
| CN1C[C@H](CNC(=O)OCc2ccccc2)C[C@@H]2c3cccc4c3c(cn4C)C[C@H]21 |  |  |  | inhibition [17]: -8% |
| CCN(CC)C(=O)/C=C/c1ccc(C(C)C)cc1 |  | inactive | Non-toxic |  |
| CCCCOc1cc(C(=O)NCCN(CC)CC)c2ccccc2n1 [DIBUCAINE] |  |  |  | IC50 [18]: 0.61 µM; Ki [18]: 0.55 µM; inhibition (Rattus norvegicus [19]): 10% |
| O=C(/C=C/c1ccc(Cl)cc1Cl)NC1=NCCS1 |  | inactive | Non-toxic |  |
| C/C(=C\C(=O)NC1=NCCS1)c1ccc(CC(C)C)cc1 |  | inactive | Non-toxic |  |
| CC(C)c1ccc(/C=C/C(=O)N(C)C2=NCCS2)cc1 |  | inactive |  | EC50 [3]: 21.1 µM |
| Fc1ccc(C(OCCN2CCN(CCCc3ccccc3)CC2)c2ccc(F)cc2)cc1 |  |  |  | inhibition [20]: 5% |
| N#Cc1ccccc1/C=C/C(=O)NC1=NCCS1 |  | inactive | Non-toxic |  |
| COc1cc(C(C)C)ccc1/C=C/C(=O)NC1=NCCS1 | 28.4 µM |  | Non-toxic |  |
| Cc1c(C(=O)NC2=NCCS2)oc2ccccc12 |  | inactive | Non-toxic |  |
| O=C(NC1=NCCS1)c1cc2ccccc2[nH]1 |  | inactive | Non-toxic |  |
| COc1ccc(C2CNC(=O)C2)cc1OC1CCCC1 (stereo not drawn) |  |  |  | inhibition (Rattus norvegicus [21]): 16% |
| Cc1ccccc1/C=C/C(=O)NC1=NCCS1 |  | inactive | Non-toxic |  |
| CN1[C@@H]2CC[C@H]1C[C@@H](OC(=O)c1cc(Cl)cc(Cl)c1)C2 |  |  |  | inhibition [22]: 3% |
